Experiments:
Format in all cases: in vivo
Alopecurus myosuroides = assay: Post-emergence herbicidal action against ALOMY; settings: visual rating about 3 weeks after treatment
Outline: (§1)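 Post-emergence application onto green parts at the one-leaf stage, 2 to 3 weeks after sowing in sandy loam. Spray carried 0.5% additive at a water rate of 600 l/ha. Percent activity assessed by eye at about 3 weeks, where 100% means plants died and 0% matches controls.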

Avena fatua = assay: Post-emergence herbicidal action against AVEFA; settings: visual rating about 3 weeks after treatment
Outline: as §1

DIGSA = assay: Post-emergence herbicidal action against DIGSA; settings: visual rating about 3 weeks after treatment
Outline: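 Greenhouse-grown plants sprayed at one-leaf stage (2–3 weeks after sowing) with WP or EC formulations as aqueous suspension/emulsion plus 0.5% additive, 600 l/ha water. Activity rated visually about 3 weeks later versus untreated controls, 100% = plants dead, 0% = like controls.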

Echinochloa crus-galli = assay: Post-emergence herbicidal action against ECHCG; settings: 80 g a.i./ha, visual rating about 3 weeks after treatment
Outline: as §1

Lolium rigidum = assay: Post-emergence herbicidal action against LOLRI; settings: visual rating about 3 weeks after treatment
Outline: as §1

Setaria viridis = assay: Post-emergence herbicidal action against SETVI; settings: visual rating about 3 weeks after treatment
Outline: as §1

Amaranthus retroflexus = assay: Post-emergence herbicidal action against AMARE
Outline: as §1

Pharbitis purpurea = assay: Post-emergence herbicidal action against PHBPU; settings: 80 g a.i./ha
Outline: as §1

Polygonum convolvulus = assay: Post-emergence herbicidal action against POLCO
Outline: as §1

Stellaria media = assay: Post-emergence herbicidal action against STEME
Description: (§2) Post-Emergence Herbicidal Action Against Harmful Plants and Crop Plant Compatibility Seeds of monocotyledonous and dicotyledonous weeds and crop plants are placed in sandy loam in plastic or wood-fibre pots, covered with soil and cultivated in a greenhouse under controlled growth conditions. 2 to 3 weeks after sowing, the test plants are treated at the one-leaf stage. The compounds of the invention, formulated in the form of wettable powders (WP) or as emulsion concentrates (EC), are then sprayed onto the green parts of the plants as aqueous suspension or emulsion with addition of 0.5% additive at a water application rate of 600 l/ha (converted). After the test plants have been kept in the greenhouse under optimum growth conditions for about 3 weeks, the activity of the preparations is rated visually in comparison to untreated controls. For example, 100% activity=the plants have died, 0% activity=like control plants. [table]

Viola tricolor = assay: Post-emergence herbicidal action against VIOTR
Description: as §2

Veronica persica = assay: Post-emergence herbicidal action against VERPE
Outline: as §1

Hordeum murinum = assay: Post-emergence herbicidal action against HORMU
Description: as §2

[1] = 80 g a.i./ha, visual rating about 3 weeks after treatment

SMILES | Herbicidal action against [%] ALOMY (Alopecurus myosuroides; 80 g a.i./ha) | Herbicidal action against [%] AVEFA (Avena fatua; 20 g a.i./ha) | Herbicidal action against [%] AVEFA (Avena fatua; 80 g a.i./ha) | Herbicidal action against [%] DIGSA (DIGSA; 20 g a.i./ha) | Herbicidal action against [%] DIGSA (DIGSA; 80 g a.i./ha) | Herbicidal action against [%] ECHCG (Echinochloa crus-galli) | Herbicidal action against [%] LOLRI (Lolium rigidum; 20 g a.i./ha) | Herbicidal action against [%] LOLRI (Lolium rigidum; 80 g a.i./ha) | Herbicidal action against [%] SETVI (Setaria viridis; 20 g a.i./ha) | Herbicidal action against [%] SETVI (Setaria viridis; 80 g a.i./ha) | Herbicidal action against [%] AMARE (Amaranthus retroflexus; [1]) | Herbicidal action against [%] PHBPU (Pharbitis purpurea) | Herbicidal action against [%] POLCO (Polygonum convolvulus; 80 g a.i./ha) | Herbicidal action against [%] STEME (Stellaria media; 20 g a.i./ha) | Herbicidal action against [%] STEME (Stellaria media; 80 g a.i./ha) | Herbicidal action against [%] VIOTR (Viola tricolor; 20 g a.i./ha) | Herbicidal action against [%] VERPE (Veronica persica; 20 g a.i./ha) | Herbicidal action against [%] VERPE (Veronica persica; 80 g a.i./ha) | Herbicidal action against [%] HORMU (Hordeum murinum; 20 g a.i./ha) | Herbicidal action against [%] HORMU (Hordeum murinum; 80 g a.i./ha) | further results
CSCCOC(=O)C1C=CC(NC(=O)C2(C(F)(F)F)CC(c3cc(F)cc(C#N)c3)=NO2)C1 (mixture of isomers) [Example I-37] | 90% | 90% | 90% | 80% | 90% | 80% | 90% | 90% | 80% | 80% | 80% | 80% | 80% | 80% | 80% | 80% | 80% | 90% | 80% | 80% | Herbicidal action against [%] ALOMY (Alopecurus myosuroides; 20 g a.i./ha): 90%; Herbicidal action against [%] AMARE (Amaranthus retroflexus; 20 g a.i./ha): 80%; Herbicidal action against [%] POLCO (Polygonum convolvulus; 20 g a.i./ha): 80%
CSCCOC(=O)C1C=CC(NC(=O)C2(C)CC(c3cc(C#N)cc(C#N)c3)=NO2)C1 (mixture of isomers) [Example I-46] | 90% | 90% | 90% | 90% | 90% | 80% | 90% | 90% | 90% | 90% | 90% | 80% | 90% | 90% | 90% | 90% | 80% | 90% | 90% | 90% | Herbicidal action against [%] ALOMY (Alopecurus myosuroides; 20 g a.i./ha): 90%; Herbicidal action against [%] POLCO (Polygonum convolvulus; 20 g a.i./ha): 80%; Herbicidal action against [%] VIOTR (Viola tricolor; 80 g a.i./ha): 80%
C=CC1(C(=O)NC2C=CC(C(=O)OCCSC)C2)CC(c2ccccc2)=NO1 (mixture of isomers) [Example I-48] | 100% |  | 90% | 80% | 90% | 80% | 80% | 90% | 80% | 80% |  | 80% |  | 90% | 90% | 90% | 80% | 90% |  | 80% | 
CSCCOC(=O)C1C=CC(NC(=O)C2(C3CC3)CC(c3cc(F)cc(F)c3)=NO2)C1 (centres unmarked) [Example I-30] | 90% | 90% | 90% | 80% | 90% |  | 90% | 90% |  | 80% | 80% |  | 80% |  |  |  | 80% | 90% | 90% | 90% | Herbicidal action against [%] VIOTR (Viola tricolor; 80 g a.i./ha): 80%

Source: US12185723B2, “Herbicidally active 3-phenylisoxazoline-5-carboxamides of s-containing cyclopentenylcarboxylic esters” (Bayer Aktiengesellschaft, priority 2019, dated 2025)
